# Measured values as given in patent US6340689B1 (priority 1999, dated 2002).
# Tests used:
# [1] = system: L. pneumophila serogroup 3; test: microbe, parasite or virus in culture; type: cell-based; settings: Legionella pneumophila; for MIC: 48 h, read-out: MIC Range
# [2] = system: L. pneumophila serogroup 8, 9; test: microbe, parasite or virus in culture; type: cell-based; settings: Legionella pneumophila; for MIC: 48 h, read-out: MIC Range
# [3] = system: Erythromycin-susceptible L. pneumophila; type: cell-based, Legionella pneumophila; settings: for Mean PAE: Erythromycin-susceptible L. pneumophila (n = 15), 4 × MIC, mean ± SD
# [4] = system: L. dumoffii; test: organism not typed; type: cell-based; settings: for MIC: 48 h, read-out: MIC Range
# [5] = system: L. pneumophila serogroup 2; test: microbe, parasite or virus in culture; type: cell-based; settings: Legionella pneumophila; for MIC: 48 h, read-out: MIC Range
# [6] = system: Other Legionella spp.; test: microbe, parasite or virus in culture; type: cell-based; settings: for MIC: 48 h, read-out: MIC Range
# [7] = system: L. pneumophila serogroup 6; test: microbe, parasite or virus in culture; type: cell-based; settings: Legionella pneumophila; for MIC: 48 h, read-out: MIC Range
# [8] = system: L. pneumophila serogroup 7; test: microbe, parasite or virus in culture; type: cell-based; settings: Legionella pneumophila; for MIC: 48 h, read-out: MIC Range
# [9] = system: L. pneumophila serogroup 1; test: microbe, parasite or virus in culture; type: cell-based, Legionella pneumophila; settings: for MIC50 / MIC / MIC90: Legionella pneumophila; for MIC: 48 h, read-out: MIC Range; for MIC90 / MIC 90%: L. pneumophila serogroup 1 (n = 85)
# [10] = system: Erythromycin-susceptible Legionella spp. other than L. pneumophila; type: cell-based; settings: for Mean PAE: Erythromycin-susceptible Legionella spp. (n = 13), 4 × MIC, mean ± SD
# [11] = system: L. micadadei; test: organism not typed; type: cell-based, L. micdadei; settings: for MIC: 48 h, read-out: MIC Range
# [12] = system: L. pneumophila serogroup 4; test: microbe, parasite or virus in culture; type: cell-based; settings: Legionella pneumophila; for MIC: 48 h, read-out: MIC Range
# [13] = system: isolates of Legionella pneumophila and other Legionella spp.; test: microbe, parasite or virus in culture; type: cell-based
# [14] = system: L. longbeacheae; test: organism not typed; type: cell-based; settings: for MIC: 48 h, read-out: MIC Range
# [15] = system: L. pneumophila serogroup 5; test: microbe, parasite or virus in culture; type: cell-based; settings: Legionella pneumophila; for MIC: 48 h, read-out: MIC Range
# [16] = system: L. dumoffii and L. longbeachae; test: organism not typed; type: cell-based
# [17] = system: L. pneumophila serogroups 1-9; type: cell-based, Legionella pneumophila
smiles,measurement,setting,value
CC1COc2c(N3CCN(C)CC3)c(F)cc3c(=O)c(C(=O)O)cn1c23 (stereo not shown) [Ofloxacin],MIC50,[1],0.016 µg/mL
same,MIC90,[1],0.03 µg/mL
same,MIC,[1],0.016 to 0.03 µg/mL
same,MIC50,[2],0.03 µg/mL
same,MIC90,[2],0.03 µg/mL
same,MIC,[2],0.03 µg/mL
same,Mean PAE,[3],3.53 ± 3 h
same,MIC50,[4],0.03 µg/mL
same,MIC90,[4],0.03 µg/mL
same,MIC,[4],0.03 µg/mL
same,MIC50,[5],0.016 µg/mL
same,MIC90,[5],0.03 µg/mL
same,MIC,[5],0.008 to 0.03 µg/mL
same,MIC50,[6],0.016 µg/mL
same,MIC90,[6],0.06 µg/mL
same,MIC,[6],0.004 to 0.06 µg/mL
same,MIC50,[7],0.03 µg/mL
same,MIC90,[7],0.03 µg/mL
same,MIC,[7],0.008 to 0.03 µg/mL
same,MIC50,[8],0.03 µg/mL
same,MIC90,[8],0.03 µg/mL
same,MIC,[8],0.03 µg/mL
same,MIC50,[9],0.03 µg/mL
same,MIC,[9],0.008 to 0.03 µg/mL
same,MIC90,[9],0.03 µg/mL
same,Mean PAE,[10],3.04 ± 2 h
same,MIC50,[11],0.03 µg/mL
same,MIC90,[11],0.03 µg/mL
same,MICs fold more active than erythromycin,[11],5 fold
same,MIC,[11],0.03 µg/mL
same,MIC50,[12],0.03 µg/mL
same,MIC90,[12],0.03 µg/mL
same,MIC,[12],0.008 to 0.03 µg/mL
same,MIC90,[13],0.03 µg/mL
same,MIC50,[14],0.03 µg/mL
same,MIC90,[14],0.03 µg/mL
same,MIC,[14],0.016 to 0.03 µg/mL
same,MIC50,[15],0.016 µg/mL
same,MIC90,[15],0.03 µg/mL
same,MIC,[15],0.008 to 0.03 µg/mL
N[C@@H]1[C@H]2CN(c3nc4c(cc3F)c(=O)c(C(=O)O)cn4-c3ccc(F)cc3F)C[C@@H]12 [Trovafloxacin],MIC50,[1],≤ 0.004 µg/mL
same,MIC90,[1],≤ 0.004 µg/mL
same,MIC,[1],≤ 0.004 µg/mL
same,MIC50,[2],≤ 0.004 µg/mL
same,MIC90,[2],≤ 0.004 µg/mL
same,MIC,[2],≤ 0.004 µg/mL
same,Mean PAE,[3],1.71 ± 1 h
same,MIC50,[4],0.008 µg/mL
same,MIC90,[4],0.008 µg/mL
same,MIC,[4],0.004 to 0.008 µg/mL
same,MIC50,[5],≤ 0.004 µg/mL
same,MIC90,[5],≤ 0.004 µg/mL
same,MIC,[5],≤ 0.004 µg/mL
same,MIC50,[6],≤ 0.004 µg/mL
same,MIC90,[6],≤ 0.004 µg/mL
same,MIC,[6],≤ 0.004 µg/mL
same,MIC50,[7],≤ 0.004 µg/mL
same,MIC90,[7],≤ 0.004 µg/mL
same,MIC,[7],≤ 0.004 µg/mL
same,MIC50,[8],≤ 0.004 µg/mL
same,MIC90,[8],≤ 0.004 µg/mL
same,MIC,[8],≤ 0.004 µg/mL
same,MIC50,[9],≤ 0.004 µg/mL
same,MIC,[9],0.004 to 0.016 µg/mL
same,MIC90,[9],≤ 0.004 µg/mL
same,Mean PAE,[10],1.22 ± 1 h
same,MIC50,[11],≤ 0.004 µg/mL
same,MIC90,[11],≤ 0.004 µg/mL
same,MIC,[11],≤ 0.004 µg/mL
same,MIC50,[12],≤ 0.004 µg/mL
same,MIC90,[12],≤ 0.004 µg/mL
same,MIC,[12],≤ 0.004 µg/mL
same,MIC90,[13],≤ 0.008 µg/mL
same,MIC50,[14],≤ 0.004 µg/mL
same,MIC90,[14],≤ 0.004 µg/mL
same,MIC,[14],≤ 0.004 µg/mL
same,MIC50,[15],≤ 0.004 µg/mL
same,MIC90,[15],≤ 0.004 µg/mL
same,MIC,[15],0.004 to 0.008 µg/mL
COc1c(N2C[C@@H]3CCCN[C@@H]3C2)c(F)cc2c(=O)c(C(=O)O)cn(C3CC3)c12 [Moxifloxacin],MIC50,[1],0.008 µg/mL
same,MIC90,[1],0.016 µg/mL
same,MIC,[1],0.004 to 0.016 µg/mL
same,MIC50,[2],0.016 µg/mL
same,MIC90,[2],0.016 µg/mL
same,MIC,[2],0.016 µg/mL
same,Mean PAE,[3],3.59 ± 3 h
same,MIC50,[4],0.03 µg/mL
same,MIC90,[4],0.03 µg/mL
same,MIC,[4],0.008 to 0.03 µg/mL
same,MIC50,[5],0.008 µg/mL
same,MIC90,[5],0.008 µg/mL
same,MIC,[5],0.004 to 0.016 µg/mL
same,MIC50,[6],0.008 µg/mL
same,MIC90,[6],0.03 µg/mL
same,MIC,[6],0.008 to 0.03 µg/mL
same,MIC50,[7],0.008 µg/mL
same,MIC90,[7],0.016 µg/mL
same,MIC,[7],0.004 to 0.016 µg/mL
same,MIC50,[8],≤ 0.004 µg/mL
same,MIC90,[8],0.016 µg/mL
same,MIC,[8],0.004 to 0.016 µg/mL
same,MIC50,[9],0.016 µg/mL
same,MIC,[9],0.004 to 0.03 µg/mL
same,MIC90,[9],0.016 µg/mL
same,Mean PAE,[10],1.18 ± 2 h
same,MIC50,[11],0.016 µg/mL
same,MIC90,[11],0.03 µg/mL
same,MICs fold more active than erythromycin,[11],5 fold
same,MIC,[11],0.008 to 0.03 µg/mL
same,MIC50,[12],0.016 µg/mL
same,MIC90,[12],0.016 µg/mL
same,MIC,[12],0.004 to 0.016 µg/mL
same,MIC90,[13],0.016 µg/mL
same,MIC50,[14],0.016 µg/mL
same,MIC90,[14],0.03 µg/mL
same,MIC,[14],0.008 to 0.03 µg/mL
same,MIC50,[15],0.016 µg/mL
same,MIC90,[15],0.016 µg/mL
same,MIC,[15],0.004 to 0.03 µg/mL
"CO/N=C1\CN(c2nc3c(cc2F)c(=O)c(C(=O)O)cn3C2CC2)CC1CN (racemic) [Gemifloxacin, (R,S)-7-(3-aminomethyl-4-methoxyiminopyrrolidin-1-yl)-1-cyclopropyl-6-fluoro-4-oxo-1,4-dihydro-1,8-naphthyridine-3-carboxylic acid]",MIC50,[1],0.016 µg/mL
same,MIC90,[1],0.016 µg/mL
same,MIC,[1],0.008 to 0.016 µg/mL
same,MIC50,[2],0.016 µg/mL
same,MIC90,[2],0.016 µg/mL
same,MIC,[2],0.016 µg/mL
same,Mean PAE,[3],3.49 ± 3 h
same,"mean PAE longer than that of trovafloxacin, levofloxacin and clarithromycin",[3]; erythromycin-susceptible L. pneumophila,≥ 1 h
same,MIC90,[16],0.06 µg/mL
same,MIC50,[4],0.06 µg/mL
same,MIC90,[4],0.06 µg/mL
same,MIC,[4],0.06 µg/mL
same,MIC50,[5],0.008 µg/mL
same,MIC90,[5],0.016 µg/mL
same,MIC,[5],0.008 to 0.016 µg/mL
same,MIC50,[6],0.03 µg/mL
same,MIC90,[6],0.06 µg/mL
same,MIC,[6],0.016 to 0.06 µg/mL
same,MIC50,[7],0.016 µg/mL
same,MIC90,[7],0.03 µg/mL
same,MIC,[7],0.008 to 0.03 µg/mL
same,MIC50,[8],0.008 µg/mL
same,MIC90,[8],0.016 µg/mL
same,MIC,[8],0.008 to 0.016 µg/mL
same,MIC 90%,[9],≦0.004 mg/L
same,MIC 90%,[9]; listed as gemifloxacin,0.016 µg/mL
same,MIC50,[9],0.016 µg/mL
same,MIC,[9],0.008 to 0.06 µg/mL
same,Mean PAE,[10],2.27 ± 2 h
same,PAE (mean PAE),"[10]; erythromycin-susceptible Legionella spp. other than L. pneumophila, four times the MIC",2.27 h
same,"mean PAE longer than that of trovafloxacin, moxifloxacin and clarithromycin",[10]; erythromycin-susceptible Legionella spp. other than pneumophila,≥ 1 h
same,MIC50,[11],0.016 µg/mL
same,MIC90,[11],0.03 µg/mL
same,MICs fold more active than erythromycin,[11],5 fold
same,MIC,[11],0.008 to 0.03 µg/mL
same,MIC50,[12],0.016 µg/mL
same,MIC90,[12],0.03 µg/mL
same,MIC,[12],0.008 to 0.03 µg/mL
same,MIC90,[13],0.016 µg/mL
same,MIC50,[14],0.06 µg/mL
same,MIC90,[14],0.06 µg/mL
same,MIC,[14],0.016 to 0.06 µg/mL
same,MIC range,"[17]; L. pneumophila serogroups 1-9, text",0.008 to 0.06 µg/mL
same,fold more active than erythromycin,[17]; against L. pneumophila strains tested,5-6 fold
same,MIC50,[15],0.03 µg/mL
same,MIC90,[15],0.03 µg/mL
same,MIC,[15],0.03 to 0.06 µg/mL
